Reference: patent publication US6649631B1, “Compositions and methods for treating bone deficit conditions” (The Board of Regents of the University of Texas System, priority 1999, dated 2003)

What was measured:
BMP2 promoter = assay: High throughput screening: BMP-2 promoter luciferase reporter in 2T3-BMP-2-LUC cells; assay type: cell-based, mouse
Text: A rapid throughput screening test for compounds capable of stimulating expression of a reporter gene linked to a BMP promoter (a surrogate for the production of bone morphogenetic factors that are endogenously produced) is described in WO96/38590 published Dec. 5, 1996, the contents of which are incorporated herein by reference. This assay is also described as a portion of a study of immortalized murine osteoblasts (derived from a mouse expressing a transgene composed of a BMP2 promoter driving expression of T-antigen) in Ghosh-Choudhery, N. et al. Endocrinology (1996) 137:331-39. In this study, the immortalized cells were stably transfected with a plasmid containing a luciferase reporter gene driven by a mouse BMP2 promoter (−2736/114 bp), and responded in a dose-dependent manner to recombinant human BMP2.
Briefly, the assay utilizes cells transformed permanently or transiently with constructs in which the promoter of a bone morphogenetic protein, specifically BMP2 or BMP4, is coupled to a reporter gene, typically luciferase. These transformed cells are then evaluated for the production of the reporter gene product; compounds that activate the BMP promoter will drive production of the reporter protein, which can be readily assayed. Over 40,000 compounds have been subjected to this rapid screening technique, and only a very small percentage are able to elicit a level of production of luciferase 5-fold greater than that produced by vehicle. […] The active compounds (“BMP promoter-active compounds” or “active compounds”) are useful in promoting bone or cartilage growth, and thus in the treatment of vertebrates in need of bone or cartilage growth.
Several tens of thousands of compounds were tested in the assay system set forth in WO 96/38590, published Dec. 5, 1996, and incorporated herein by reference. […]
The treated cells were incubated for 24 hours at 37° C. and 5% CO2. […] Luminescence was measured on an automated 96-well luminometer, and was expressed as either picograms of luciferase activity per well or as picograms of luciferase activity per microgram of protein. […]

Swiss white mice = assay: In vivo assay of effects of compounds on murine calvarial bone growth; set-up: species or system mouse; conditions: as compared to a vehicle control
Method: Male ICR Swiss white mice, aged 4-6 weeks and weighing 13-26 gm, are employed, using 4-5 mice per group. The calvarial bone growth assay is performed as described in PCT application WO 95/24211. Briefly, the test compound or appropriate control vehicle is injected into the subcutaneous tissue over the right calvaria of normal mice. Typically, the control vehicle is the vehicle in which the compound was solubilized, and is PBS containing 5% DMSO or is PBS containing Tween (2 μl/10 ml). The animals are sacrificed on day 14 and bone growth measured by histomorphometry. Bone samples for quantitation are cleaned from adjacent tissues and fixed in 10% buffered formalin for 24-48 hours, decalcified in 14% EDTA for 1-3 weeks, processed through graded alcohols; and embedded in paraffin wax. Three to five μm sections of the calvaria are prepared, and representative sections are selected for histomorphometric assessment of the effects on bone formation and bone resorption. Sections are measured by using a camera lucida attachment to trace directly the microscopic image onto a digitizing plate. Bone changes are measured on sections cut 200 μm apart, over 4 adjacent 1×1 mm fields on both the injected and noninjected sides of the calvaria. […]
Similar results are obtained when new bone width in microns is measured. […]

TMC-23 cells = assay: Chondrogenic activity: alkaline phosphatase (ALP) activity in TMC-23 cells; assay type: cell-based, mouse; conditions: day 2, 10^−9 M
Method: For measurement of alkaline phosphatase (ALP) activity, the technique of LF Bonewald et al. J. Biol Chem (1992) 267:8943-49, was employed. Briefly, TMC-23 cells were plated in 96 well microtiter plates in DMEM containing 10% FCS at 4×10^3 cells/well. Two days after plating, the cells were confluent and the medium was replaced with fresh medium containing 10% FCS and different concentrations of compounds or recombinant BMP-2. After an additional 2 or 5 days incubation, the plates were washed twice with PBS, and then lysing solution (0.05% Triton X-100) was added (100 μl/well). The cells were lysed by three freeze-thaw cycles of −70° C. (30 min), followed by 37° C. (30 min with shaking). Twenty microliters of cell lysates were assayed with 80 μl of 5 mM p-nitrophenol phosphate in 1.5 M 2-amino-2-methyl-propanol buffer, pH 10.3 (Sigma ALP kit, Sigma Chemical Co., St. Louis, Mo.) for 10 min at 37° C. The reaction was stopped by the addition of 100 μl of 0.5 M NaOH. The spectrophotometric absorbance at 405 nm was compared to that of p-nitrophenol standards to estimate ALP activity in the samples. The protein content of the cell lysates was determined by the Bio-Rad protein assay kit (Bio-Rad, Hercules, Calif.). Specific activity was calculated using these two parameters.

ovariectomized rats = assay: Stimulation of bone growth in ovariectomized rats (OVX assay); assay type: in vivo, rat
Method: Lead compounds also be tested in acute ovariectomized animals (prevention model) using an in vivo dosing assay. Such assays may also include an estrogen-treated group as a control. An exemplary subcutaneous dosing assay is performed as follows:
In a typical study, 80 three-month-old female Sprague-Dawley rats are weight-matched and divided into eight groups, with ten animals in each group. This includes a baseline control group of animals sacrificed at the initiation of the study; three control groups (sham ovariectomized (sham OVX)+vehicle only; ovariectomized (OVX)+vehicle only; PBS-treated OVX); and a control OVX group that is administered a compound known to promote bone growth. Three dosage levels of the compound to be tested are administered to the remaining three groups of OVX animals.
Since ovariectomy (OVX) induces hyperphagia, all OVX animals are pair-fed with sham OVX animals throughout the 35 day study. Briefly, test compound, positive control compound, PBS, or vehicle alone is administered subcutaneously once per day for 35 days. Alternatively, test compound can be formulated in implantable pellets that are implanted for 35 days, or may be administered orally, such as by gastric gavage. All animals, including sham OVX/vehicle and OVX/vehicle groups, are injected intraperitoneally with calcein nine days and two days before sacrifice (two injections of calcein administered each designated day, to ensure proper labeling of newly formed bone). Weekly body weights are determined. At the end of the 35-day cycle, the animals' blood and tissues are processed as described above.
Lead compounds may also be tested in chronic OVX animals (treatment model). An exemplary protocol for treatment of established bone loss in ovariectomized animals that can be used to assess efficacy of anabolic agents may be performed as follows. Briefly, 80 to 100 six month old female, Sprague-Dawley rats are subjected to sham surgery (sham OVX) or ovariectomy (OVX) at time 0, and 10 rats are sacrificed to serve as baseline controls. Body weights are recorded weekly during the experiment. After approximately 6 weeks of bone depletion (42 days), 10 sham OVX and 10 OVX rats are randomly selected for sacrifice as depletion period controls. Of the remaining animals, 10 sham OVX and 10 OVX rats are used as placebo-treated controls. The remaining OVX animals are treated with 3 to 5 doses of test drug for a period of 5 weeks (35 days). As a postitive control, a group of OVX rats can be treated with an agent such as PTH, a known anabolic agent in this model (Kimmel et al. Endocrinology (1993) 132:1577-84). To determine effects on bone formation, the following procedure can be followed. The femurs, tibiae and lumbar vertebrae 1 to 4 are excised and collected. The proximal left and right tibiae are used for pqCT measurements, cancellous bone mineral density (BMD) (gravimetric determination), and histology, while the midshaft of each tibiae is subjected to cortical BMD or histology. The femurs are prepared for pqCT scanning of the midshaft prior to biomechanical testing. With respect to lumbar vertebrae (LV), LV2 are processed for BMD (pqCT may also be performed); LV3 are prepared for undecalcified bone histology; and LV4 are processed for mechanical testing.
The compound 59-0145 was tested at various concentrations in the OVX assay conducted as described above. The increase in bone volume was measured by two different groups; one group found 5 μg/kg/day of 59-0145 gave 21% increase over control whereas the second group found a 71% increase. At 50 μg/kg/day, the first group found a 31% increase, and the second a 54% increase.
In another experiment, 3 month old Sprague Dawley rats were ovariectomized and depleted for six weeks. At the end of the six weeks, treatment was started with subcutaneous administration of compound 59-0145. The treatment continued for 10 weeks. […]

neonatal mouse calvaria = assay: Ex vivo (neonatal mouse) calvarial bone growth assay; assay type: cell-based
Method: This assay is similar to that described by Gowen M. & Mundy G. J Immunol (1986) 136:2478-82. Briefly, four days after birth, the front and parietal bones of ICR Swiss white mouse pups are removed by microdissection and split along the sagittal suture. The bones are incubated in BGJb medium (Irvine Scientific, Santa Ana, Calif.) plus 0.02% (or lower concentration) β-methylcyclodextrin, wherein the medium also contains test or control substances, at 37° C. in a humidified atmosphere of 5% CO2 and 95% air for 96 hours.
Following this, the bones are removed from the incubation media and fixed in 10% buffered formalin for 24-48 hours, decalcified in 14% EDTA for 1 week, processed through graded alcohols; and embedded in paraffin wax. Three μm sections of the calvaria are prepared. Representative sections are selected for histomorphometric assessment of bone formation and bone resorption. Bone changes are measured on sections cut 200 μm apart. Osteoblasts and osteoclasts are identified by their distinctive morphology.
A number of compounds, in particular, those studied in connection with lead compounds classified as hydrazone/hydrazides (H) exemplified by 59-0045, benzothiazoles (T) exemplified by 59-0104, bis-pyridines (P) exemplified by 59-0145, and quinolines/quinoxalines (Q) exemplified by 59-0197, were tested in the ex vivo calvarial assay described hereinabove.
The scores are assigned to bone formation on the ectocranial periosteal surface. The area immediately surrounding midline suture is excluded from analysis.
In all samples, toxicity, ectopic new or woven bone formation associated with osteoblasts, and osteoblast size as reflections of relative activity are noted.

## CC(CNc1ccc(C(F)(F)F)cn1)Nc1ccc(C(F)(F)F)cn1 (centres unmarked) [Compound 59-0459]
BMP2 promoter
  performance in the screening assay relative to 59-0008: better than 59-0008

## c1ccc(N=NC2=NNc3ccccc3S2)cc1 [Compound 59-0008, 3-phenylazo-1H-4,1,2-benzothiadiazine]
BMP2 promoter; at about 3 μM
  response at maximal activity: approximately 175 light emission units
Swiss white mice
  increase in width of new calvarial bone: 4 fold
TMC-23 cells
  increase of ALP levels compared to the vehicle control: approximately 3 fold

## FC(F)(F)c1ccc(NCCNc2ccc(C(F)(F)F)cn2)nc1 [Compound 59-0145]
Ovariectomized rats; 5 μg/kg/day, first group of measurers
  increase in bone volume over control: 21%
Ovariectomized rats; 5 μg/kg/day, second group of measurers
  increase in bone volume over control: 71%
Ovariectomized rats; 50 μg/kg/day, first group of measurers
  increase in bone volume over control: 31%
Ovariectomized rats; 50 μg/kg/day, second group of measurers
  increase in bone volume over control: 54%
Ovariectomized rats; 5 and 50 μg/kg/day, FIG. 10
  effect on lumbar vertebrae: beneficial effect
Ovariectomized rats; chronic OVX rats, depleted 6 weeks, subcutaneous, 10 weeks of treatment, 50-500 μg/kg/day
  increase in trabecular bone (proximal tibia) compared to placebo-treated group: significant increase
Neonatal mouse calvaria
  activity in the ex vivo calvarial assay, in words: consistent moderate activity

## COc1cc(N(C)C)ccc1C=Cc1ccc2ccccc2n1 [Compound 59-0150]
Neonatal mouse calvaria
  activity in the ex vivo calvarial assay, in words: activity when measured by one group but not the other

## CN(C)c1ccc(C=Cc2cnc3ccccc3n2)cc1 [Compound 59-0019]
Neonatal mouse calvaria
  activity in the ex vivo calvarial assay, in words: at least some indication of activity

## N#Cc1ccc(NCCNc2ccc(C(F)(F)F)cn2)nc1 [Compound 59-0483]
BMP2 promoter
  performance in the screening assay relative to 59-0008: better than 59-0008
